Patent US9914731B2, “Pyrazolo[1,5-a]pyridine derivatives and methods of their use” (Ignyta, Inc., priority 2013, dated 2018)

Tests used:
[1] = biological target: recombinant human baculovirus-expressed cMET (Homo sapiens (Human), UniProt P08581); test: c-MET kinase assay (HTRF KinEASE); type: biochemical; conditions: average of two or more determinations; read-out: c-MET IC50
[2] = biological target: recombinant human baculovirus-expressed AXL (Homo sapiens (Human), UniProt P30530); test: AXL kinase assay (HTRF KinEASE); type: biochemical; conditions: average of two or more determinations

SMILES	IC50 [1] [nM]	IC50 [2] [nM]
Cn1cnc(-c2cc(Oc3ccc(NC(=O)c4cn(CCOCc5ccccc5)c(=O)n(-c5ccc(F)cc5)c4=O)cc3F)c3ccnn3c2)c1 [Example 96, 1-(2-Benzyloxy-ethyl)-3-(4-fluoro-phenyl-)-2,4-dioxo-1,2,3,4-tetrahydro-pyrimidine-5-carboxylic acid{3-fluoro-4-[6-(1-methyl-1H-imidazol-4-yl)-pyrazolo[1,5-a]pyridin-4-yloxy]-phenyl}-amide]	10 to 100	< 10
Cc1cc(NC(=O)c2cn(C(C)C)c(=O)n(-c3ccc(F)cc3)c2=O)ccc1Oc1cc(-c2cn(C)cn2)cn2nccc12 [Example 110, 3-(4-Fluoro-phenyl)-1-isopropyl-2,4-dioxo-1,2,3,4-tetrahydro-pyrimidine-5-carboxylic acid{3-methyl-4-[6-(1-methyl-1H-imidazol-4-yl)-pyrazolo[1,5-a]pyridin-4-yloxy]-phenyl}-amide]	10 to 100	< 10
CC(C)n1cc(C(=O)Nc2ccc(Oc3cc(-c4cn(C)cn4)cn4nccc34)cc2)c(=O)n(-c2ccc(F)cc2)c1=O [Example 114, 3-(4-Fluoro-phenyl)-1-isopropyl-2,4-dioxo-1,2,3,4-tetrahydro-pyrimidine-5-carboxylic acid{4-[6-(1-methyl-1H-imidazol-4-yl)-pyrazolo[1,5-a]pyridin-4-yloxy]-phenyl}-amide]	< 10	< 10
CC(C)n1cc(C(=O)Nc2ccc(Oc3cc(-c4cn(C)cn4)cn4nccc34)cn2)c(=O)n(-c2ccc(F)cc2)c1=O [Example 124, 3-(4-Fluoro-phenyl)-1-isopropyl-2,4-dioxo-1,2,3,4-tetrahydro-pyrimidine-5-carboxylic acid {5-[6-(1-methyl-1H-imidazol-4-yl)-pyrazolo[1,5-a]pyridin-4-yloxy]-pyridin-2-yl}-amide]	< 10	< 10
CCn1nc(C(=O)Nc2ccc(Oc3cc(-c4cn(C)cn4)cn4nccc34)c(F)c2)c(=O)n(-c2ccc(F)cc2)c1=O [Example 128, 2-Ethyl-4-(4-fluoro-phenyl)-3,5-dioxo-2,3,4,5-tetrahydro-1,2,4-triazine-6-carboxylic acid {3-fluoro-4-[6-(1-methyl-1H-imidazol-4-yl)-pyrazolo[1,5-a]pyridin-4-yloxy]-phenyl}-amide]	< 10	< 10
CC(C)n1nc(C(=O)Nc2ccc(Oc3cc(-c4cn(C)cn4)cn4nccc34)c(F)c2)c(=O)n(-c2ccc(F)cc2)c1=O [Example 129, 4-(4-Fluoro-phenyl)-2-isopropyl-3,5-dioxo-2,3,4,5-tetrahydro-1,2,4-triazine-6-carboxylic acid{3-fluoro-4-[6-(1-methyl-1H-imidazol-4-yl)-pyrazolo[1,5-a]pyridin-4-yloxy]-phenyl}-amide]	< 10	< 10
CCn1cc(C(=O)Nc2ccc(Oc3cc(NC(C)=O)cn4nccc34)c(F)c2)c(=O)n(-c2ccc(F)cc2)c1=O [Example 142, 1-Ethyl-3-(4-fluoro-phenyl)-2,4-dioxo-1,2,3,4-tetrahydro-pyrimidine-5-carboxylic acid[4-(6-acetylamino-pyrazolo[1,5-a]pyridin-4-yloxy)-3-fluoro-phenyl]-amide]	< 10	< 10
CC(C)n1cc(C(=O)Nc2ccc(Oc3cc(NC(=O)N(C)C)cn4nccc34)c(F)c2)c(=O)n(-c2ccc(F)cc2)c1=O [Example 147, 3-(4-Fluoro-phenyl)-1-isopropyl-2,4-dioxo-1,2,3,4-tetrahydro-pyrimidine-5-carboxylic acid{4-[6-(3,3-dimethyl-ureido)-pyrazolo[1,5-a]pyridin-4-yloxy]-3-fluoro-phenyl}-amide]	< 10	< 10
CCn1cc(C(=O)Nc2ccc(Oc3cc(NC(=O)OC)cn4nccc34)c(F)c2)c(=O)n(-c2ccc(F)cc2)c1=O [Example 148, [4-(4-{[1-Ethyl-3-(4-fluoro-phenyl)-2,4-dioxo-1,2,3,4-tetrahydro-pyrimidine-5-carbonyl]-amino}-2-fluoro-phenoxy)-pyrazolo[1,5-a]pyridin-6-yl]-carbamic acid methyl ester]	10 to 100	< 10
COC(=O)Nc1cc(Oc2ccc(NC(=O)c3cn(C(C)C)c(=O)n(-c4ccc(F)cc4)c3=O)cc2F)c2ccnn2c1 [Example 149, [4-(2-Fluoro-4-{[3-(4-fluoro-phenyl)-1-isopropyl-2,4-dioxo-1,2,3,4-tetrahydro-pyrimidine-5-carbonyl]-amino}-phenoxy)-pyrazolo[1,5-a]pyridin-6-yl]-carbamic acid methyl ester]	10 to 100	< 10

Continued, values first:

IC50 [1] [nM]	IC50 [2] [nM]	SMILES
< 10	< 10	Cc1ccc(C(=O)Nc2ccc(Oc3cc(-c4cn(C)cn4)cn4nccc34)c(F)c2)c(=O)n1-c1ccc(F)cc1 [Example 91, 1-(4-Fluoro-phenyl)-6-methyl-2-oxo-1,2-dihydro-pyridine-3-carboxylic acid {3-fluoro-4-[6-(1-methyl-1H-imidazol-4-yl)-pyrazolo[1,5-a]pyridin-4-yloxy]-phenyl}-amide]
< 10	< 10	CCn1cc(C(=O)Nc2ccc(Oc3cc(-c4cn(C)cn4)cn4nccc34)c(F)c2)c(=O)n(-c2ccc(F)cc2)c1=O [Example 93, 1-Ethyl-3-(4-fluoro-phenyl)-2,4-dioxo-1,2,3,4-tetrahydro-pyrimidine-5-carboxylic acid {3-fluoro-4-[6-(1-methyl-1H-imidazol-4-yl)-pyrazolo[1,5-a]pyridin-4-yloxy]-phenyl}-amide]
< 10	< 10	CC(C)n1cc(C(=O)Nc2ccc(Oc3cc(-c4cn(C)cn4)cn4nccc34)c(F)c2)c(=O)n(-c2ccc(F)cc2)c1=O [Example 94, 3-(4-Fluoro-phenyl)-1-isopropyl-2,4-dioxo-1,2,3,4-tetrahydro-pyrimidine-5-carboxylic acid {3-fluoro-4-[6-(1-methyl-1H-imidazol-4-yl)-pyrazolo[1,5-a]pyridin-4-yloxy]-phenyl}-amide]
< 10	< 10	Cn1cnc(-c2cc(Oc3ccc(NC(=O)c4cn(C)c(=O)n(-c5ccc(F)cc5)c4=O)cc3F)c3ccnn3c2)c1 [Example 95, 3-(4-Fluoro-phenyl)-1-methyl-2,4-dioxo-1,2,3,4-tetrahydro-pyrimidine-5-carboxylic acid{3-fluoro-4-[6-(1-methyl-1H-imidazol-4-yl)-pyrazolo[1,5-a]pyridin-4-yloxy]-phenyl}-amide]
< 10	< 10	CCn1cc(C(=O)Nc2ccc(Oc3cc(-c4cscn4)cn4nccc34)c(F)c2)c(=O)n(-c2ccc(F)cc2)c1=O [Example 101, 1-Ethyl-3-(4-fluoro-phenyl)-2,4-dioxo-1,2,3,4-tetrahydro-pyrimidine-5-carboxylic acid[3-fluoro-4-(6-thiazol-4-yl-pyrazolo[1,5-a]pyridin-4-yloxy)-phenyl]-amide]
< 10	< 10	O=C(Nc1ccc(Oc2cc(-c3cscn3)cn3nccc23)c(F)c1)c1cccn(-c2ccc(F)cc2)c1=O [Example 102, 1-(4-Fluoro-phenyl)-2-oxo-1,2-dihydro-pyridine-3-carboxylic acid[3-fluoro-4-(6-thiazol-4-yl-pyrazolo[1,5-a]pyridin-4-yloxy)-phenyl]-amide]
< 10	< 10	CC(C)n1cc(C(=O)Nc2ccc(Oc3cc(-c4cncs4)cn4nccc34)c(F)c2)c(=O)n(-c2ccc(F)cc2)c1=O [Example 103, 3-(4-Fluoro-phenyl)-1-isopropyl-2,4-dioxo-1,2,3,4-tetrahydro-pyrimidine-5-carboxylic acid[3-fluoro-4-(6-thiazol-5-yl-pyrazolo[1,5-a]pyridin-4-yloxy)-phenyl]-amide]
< 10	< 10	CCn1cc(C(=O)Nc2ccc(Oc3cc(-c4cncs4)cn4nccc34)c(F)c2)c(=O)n(-c2ccc(F)cc2)c1=O [Example 104, 1-Ethyl-3-(4-fluoro-phenyl)-2,4-dioxo-1,2,3,4-tetrahydro-pyrimidine-5-carboxylic acid[3-fluoro-4-(6-thiazol-5-yl-pyrazolo[1,5-a]pyridin-4-yloxy)-phenyl]-amide]
< 10	< 10	Cn1cnc(-c2cc(Oc3ccc(NC(=O)c4c[nH]c(=O)n(-c5ccc(F)cc5)c4=O)cc3F)c3ccnn3c2)c1 [Example 107, 3-(4-Fluoro-phenyl)-2,4-dioxo-1,2,3,4-tetrahydro-pyrimidine-5-carboxylic acid{3-fluoro-4-[6-(1-methyl-1H-imidazol-4-yl)-pyrazolo[1,5-a]pyridin-4-yloxy]-phenyl}-amide]
< 10	< 10	CCn1cc(C(=O)Nc2ccc(Oc3cc(-c4cn(C)cn4)cn4nccc34)cc2)c(=O)n(-c2ccc(F)cc2)c1=O [Example 113, 1-Ethyl-3-(4-fluoro-phenyl)-2,4-dioxo-1,2,3,4-tetrahydro-pyrimidine-5-carboxylic acid {4-[6-(1-methyl-1H-imidazol-4-yl)-pyrazolo[1,5-a]pyridin-4-yloxy]-phenyl}-amide]
